# Earlier results in US11678683B2, “Processed edible product comprising a polyelectrolyte complex and an antimicrobial compound” (Ceradis B.V., priority 2013, dated 2023).
# How the values were obtained:
# [1] = neutral aqueous systems
smiles,measurement,setting,value
"C[C@@H]1C/C=C/C=C/C=C/C=C/[C@H](O[C@@H]2O[C@H](C)[C@@H](O)[C@H](N)[C@@H]2O)C[C@@H]2O[C@](O)(C[C@@H](O)C[C@H]3O[C@@H]3/C=C/C(=O)O1)C[C@H](O)[C@H]2C(=O)O [Natamycin, natamycin]",Solubility,[1],30-40 ppm
same,MIC (Minimal Inhibitory Concentration),most fungi,less than 10 ppm
